Laboratory results: PubChem BioAssay (NCI)
Where “and” joins values, the source holds several entries; their conditions need not be identical. Equal values may be shown once.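 96-well plates; 48 h exposure; 5 concentrations. Endpoints by linear interpolation between flanking doses. Not reached: highest tested concentration assigned. GI50 marks 50% less growth. TGI marks complete inhibition of growth.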

Tests used:
Assay in all cases: DTP human tumour cell line panel, 48 h
A498 renal = tested on: A498 renal
ACHN renal = tested on: ACHN renal
CAKI-1 renal = tested on: CAKI-1 renal
HCT-15 colon = tested on: HCT-15 colon
KM12 colon = tested on: KM12 colon
SK-MEL-2 melanoma = tested on: SK-MEL-2 melanoma
SR leukemia = tested on: SR leukemia
SW-620 colon = tested on: SW-620 colon
HCC-2998 colon = tested on: HCC-2998 colon
HOP-62 NSCLC = tested on: HOP-62 NSCLC
K-562 leukemia = tested on: K-562 leukemia

| Structure (SMILES) | TGI (A498 renal) | TGI (ACHN renal) | TGI (CAKI-1 renal) | TGI (HCT-15 colon) | TGI (KM12 colon) | TGI (SK-MEL-2 melanoma) | TGI (SR leukemia) | TGI (SW-620 colon) | TGI (HCC-2998 colon) | TGI (HOP-62 NSCLC) | TGI (K-562 leukemia) | GI50 (K-562 leukemia) | GI50 (SK-MEL-2 melanoma) |
| --- | --- | --- | --- | --- | --- | --- | --- | --- | --- | --- | --- | --- | --- |
| Cn1c(-c2ccc(/C=N\N3CCN(/N=C/c4ccc(-c5c[n+]6ccccc6n5C)cc4)CC3)cc2)c[n+]2ccccc12 | 42.8 µM | > 100 µM | > 100 µM | > 100 µM | > 100 µM | > 100 µM | > 100 µM | > 100 µM | – | – | – | – | – |
| CNC(=O)c1[nH]cnc1/N=N/N(C)N | > 100 µM | – | > 100 µM | > 100 µM | > 100 µM | > 100 µM | – | > 100 µM | > 100 µM | > 100 µM | > 100 µM | – | – |
| COc1cccc(-c2cc(=O)c3c(C)ccnc3[nH]2)c1 | > 77.1 µM | > 100 µM | – | – | 1.49 µM | > 100 µM | 0.0396 µM | > 100 µM | 0.27 µM | > 100 µM | 0.397 µM | – | – |
| CC(C)CCn1c(=O)c2c(=O)[nH][nH]c2c2ccccc21 | > 100 µM | > 100 µM | – | > 100 µM | > 100 µM | – | > 100 µM | > 100 µM | > 100 µM | > 100 µM | > 100 µM | – | – |
| COc1ccc(NC(=O)/C(CC2=Nc3ccc([N+](=O)[O-])cc3NC2O)=N\NC(=O)C[N+](C)(C)C)c(OC)c1 (stereo unspecified) | – | > 100 µM | > 100 µM | > 100 µM | > 100 µM | > 100 µM | 48.6 µM | > 100 µM | > 100 µM | > 100 µM | – | – | – |
| O[C@@H]1C[C@@H]2N[C@@](O)(C[C@@H]2O)[C@H]1O | > 100 µM | > 100 µM | – | > 100 µM | > 100 µM | – | > 100 µM | > 100 µM | > 100 µM | > 100 µM | > 100 µM | – | – |
| CN(CCc1ccc(N)cc1)[C@H]1CCCC[C@H]1N1CCCC1 | > 100 µM | > 100 µM | > 100 µM | > 100 µM | > 100 µM | > 100 µM | – | > 100 µM | > 100 µM | > 100 µM | > 100 µM | – | – |
| C=C1C(=O)OC2C1CC(O)/C(C)=C\CCC1(C)OC21 (stereo unspecified) | > 100 µM | > 100 µM | – | 33.5 µM | > 100 µM | 44.5 µM | 61.2 µM | > 100 µM | 79.9 µM | 49.3 µM | – | – | – |
| C=CC[C@H](C)CCC(=O)N1[C@H]2CC3CC[C@@]2(CS1(=O)=O)C3(C)C | > 100 µM | > 100 µM | > 100 µM | 74.9 µM | > 100 µM | > 100 µM | > 100 µM | > 100 µM | > 100 µM | > 100 µM | – | – | – |
| CCOC(=O)C(NC(=O)Nc1ccc(Cl)c(Cl)c1)C(F)(F)F (stereo unspecified) | > 100 µM | > 100 µM | – | > 100 µM | – | > 100 µM | > 100 µM | > 100 µM | > 100 µM | – | > 100 µM | – | – |
| Cc1ccc2c(n1)C(=O)c1ccccc1C2=O | > 88.4 µM | > 100 µM | > 89.2 µM | 82.9 µM | > 100 µM | > 89 µM | – | > 95.4 µM | > 92.2 µM | > 85.4 µM | > 84 µM | – | – |
| CC(=O)Nc1ccc2c3c(cc(O)c2c1)N(C(=O)CCCCC(=O)Nc1ccc2c4c(cc(O)c2c1)N(C(=O)OC(C)(C)C)CC4CCl)CC3CCl (stereo unspecified) | 4.57 µM | 16.1 µM | 71.5 µM | 48.2 µM | > 100 µM | 3.49 µM | – | > 100 µM | 3.79 µM | > 33.2 µM | > 100 µM | – | – |
| Nc1nc(Cl)cc(Nc2cc(Cl)cc(Cl)c2)n1 | 44.3 µM | 56.8 µM | 48.2 µM | 42.6 µM | 37.7 µM | 38.1 µM | – | 41.1 µM | 32.8 µM | 55.1 µM | 81.3 µM | – | – |
| CC(=O)OCC1=C(C)C(OC(=O)C(OC(C)=O)[C@@H](NC(=O)c2ccccc2)c2ccccc2)CCC1(C)C (stereo partly specified) | > 100 µM | > 100 µM | > 100 µM | > 100 µM | > 100 µM | – | > 100 µM | > 100 µM | > 100 µM | > 100 µM | > 100 µM | – | – |
| O=C(N/N=C\c1ccc2ccccc2c1)Nc1ccc([N+](=O)[O-])cc1 | – | > 63.8 µM | > 100 µM | > 72.6 µM | > 100 µM | > 73.5 µM | > 100 µM | > 100 µM | > 63.3 µM | 68.1 µM | > 100 µM | – | – |
| CC(C)=CCSC1CC2C(CC1(C)O)C2(C)C (stereo unspecified) | 31.4 µM and 36.2 µM | 31 µM and 31.3 µM | 28.3 µM and 25.5 µM | 31.4 µM and 29.6 µM | 35.7 µM and 27.7 µM | 44.5 µM and 24.7 µM | – | 35.1 µM and 33.3 µM | 3.27 µM and 18.6 µM | 31.8 µM and 31.2 µM | 80.1 µM and 29.6 µM | 28.2 µM and 10.1 µM | 22.8 µM and 10.2 µM |
| COCc1cc2c(cc1/C=C/[N+](=O)[O-])OCO2 | 30.8 µM | 30.9 µM | 34.2 µM | 36.8 µM | 35.8 µM | – | > 100 µM | 40.7 µM | 32 µM | 35.8 µM | > 100 µM | – | – |
| C1=C\CCCCN2C[C@H]3CCCC/C=C\CCCCN4CC[C@@H]([C@H](CCCCCC/1)C4)[C@H](C3)C2 | 17.4 µM | 4.06 µM | 5.6 µM | 3.27 µM | 4.03 µM | 4.56 µM | > 19.8 µM | 6.71 µM | 2.01 µM | 5 µM | – | – | – |
| COCCOCCOC1=C(Cl)C(=O)c2c(O)ccc(O)c2C1=O | 13.9 µM | 3.5 µM | 3.17 µM | 3.42 µM | 31.9 µM | 4.86 µM | 3.04 µM | 0.562 µM | 34 µM | 7.3 µM | – | – | – |
| CC(C)C[P+](c1ccccc1)(c1ccccc1)c1ccccc1 | > 100 µM | > 100 µM | 37.8 µM | > 100 µM | 20.7 µM | 41.7 µM | – | > 100 µM | > 100 µM | > 100 µM | > 100 µM | – | – |
| COC(=O)c1csc(-c2nc(CCNC(=O)OC(C)(C)C)sc2Br)n1 | > 100 µM | > 100 µM | – | > 100 µM | > 100 µM | – | > 100 µM | > 100 µM | > 100 µM | > 100 µM | > 100 µM | – | – |
